Measured values reported in US20240084044A1, “Heteromultivalent Nucleic Acid Scaffolds and Uses Thereof” (George Mason University, priority 2022, published 2024).
Bridges are numbered along the chain shown (N, C = ends). Roman numbers before positions name the chains, in order.

Tested on: IL-33 signaling (HEK-Blue IL-33 cells)
Experiment: SEAP reporter assay in HEK-Blue IL-33 reporter cells
Type: cell-based, human
Method: HEK-Blue® IL-33 (Invivogen, Cat. #hkb-hil33) and IL-1β cells (Invivogen, Cat #hkb-il1bv2) were cultured in T25 and T75 flasks (NUNC, Cat. #156367 and #156499) in DMEM media supplemented with L-glutamine (Gibco, Cat. #11995-065), 10% Fetal Bovine Serum (Gibco, Cat. #10437-028), 1% Penicillin/Streptomycin (Gibco, Cat. #15140-148), and 0.5% Normacin® (Invivogen, Cat. #ant-hr-1). IL-33 cell growth media also included 1 mL of 250× Selectin Cocktail® (Invivogen, Cat. #hb-sel) and IL-1β cell growth media included 100 μg/mL of Zeocin® (Cat #ant-zn-05). Cells were maintained at 37° C. with humidity and 5% CO2 and were passaged upon reaching 80-85% confluency. […]
IL-33 and IL-1β signaling activation was assessed based on the expression of a SEAP reporter gene. […] Pellet was resuspended in 5 mL test medium (DMEM, 10% heat inactivated FBS, and 1% P/S), cells counted, and concentration adjusted to 2.8×10^5 cell/mL. […] After incubation, SEAP reporter gene phosphatase activity was measured by adding 20 μL of supernatant from each well to 180 μL of QuantiBLUE substrate (Invivogen, Cat #rep-qbs) and incubated an additional 30 min at 37° C. Colorimetric absorbance was measured at 620 nm. […]
MSTOP bioactivity was determined in a reporter gene cell model. […] After six hours, IL-33 signaling was quantified by absorbance at 620 nm, based on the metabolism of QUANTI-Blue substrate by expressed SEAP secreted into the media.

## MSTOP: 3WJ DNA scaffold whose three DBCO staple strands carry cyclized azidolysine IL-1RAcP hotspot peptides; decoy for IL-33/ST2 (peptide 1 Ac-CKEYGIQRITC-NH2; peptide 2 Ac-AKVGSPKNAVPPC-NH2; peptide 3 Ac-CKGEVAKAAKVKC-NH2; disulfide I:1-I:11, III:1-III:13; thioether II:1-II:13; not fully specified (some residues); also: three peptides held on a 3-way junction DNA scaffold via DBCO staple strands)
1 μM, 100 pg/mL IL-33, 6 h
  reduction in IL-33 induced SEAP expression: ~40%
MSTOP dose curve 10 μM to 10 nM
  inhibition of IL-33 cells compared to IL-1β cells: Significant inhibition
